From the supplement of paper PMC10307832 come the findings set out here.

What all share (assay): relative viability (nuclei count vs DMSO), 5 days (fraction); higher = more cells survive
Compound in test [1]: C[C@@]1(C(=O)Nc2ccc(F)nc2)CCCN1c1nc(Nc2cc(C3CC3)n[nH]2)c2cccn2n1 + Cc1nc(Nc2ncc(C(=O)Nc3c(C)cccc3Cl)s2)cc(N2CCN(CCO)CC2)n1 [Dasatinib] (partner 0.075 µM)
In short, it runs like this:
(§1)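 Each reported value is a median over duplicate plates. It expresses relative viability: treated-well nuclei count divided by vehicle-well nuclei count. Lung cancer cell lines in 1536-well plates were dosed by pin tool a day after seeding, alone with one drug or with a fixed anchor-drug dose plus five library-drug doses (not always all listed) in √10 steps, and nuclei were counted after 5 days.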

Compound in the test “Motesanib + Olaparib”: CC1(C)CNc2cc(NC(=O)c3cccnc3NCc3ccncc3)ccc21 [Motesanib] + O=C(c1cc(Cc2n[nH]c(=O)c3ccccc23)ccc1F)N1CCN(C(=O)C2CC2)CC1 [Olaparib] (partner 8 µM)
In short, it runs like this:
as §1

Compound in the test “Motesanib + Pictilisib”: CC1(C)CNc2cc(NC(=O)c3cccnc3NCc3ccncc3)ccc21 [Motesanib] + CS(=O)(=O)N1CCN(Cc2cc3nc(-c4cccc5[nH]ncc45)nc(N4CCOCC4)c3s2)CC1 [Pictilisib] (partner 1 µM)
In short, it runs like this: as §1

Compound in the test “Motesanib + Bortezomib”: CC1(C)CNc2cc(NC(=O)c3cccnc3NCc3ccncc3)ccc21 [Motesanib] + CC(C)C[C@H](NC(=O)[C@H](Cc1ccccc1)NC(=O)c1cnccn1)B(O)O [Bortezomib] (partner 0.002 µM)
In short, it runs like this: as §1

Consider PC-3 [JPC-3], for which the relative viability in test [1] (first compound 0.04 µM) came out at 1.09; in test [1] (first compound 0.1265 µM), 0.94; in test [1] (first compound 0.4 µM), 0.891; in test [1] (first compound 1.265 µM), 0.787; with Motesanib + Olaparib (first compound 0.01 µM), 1.14; with Motesanib + Olaparib (first compound 0.03162 µM), 1.18. Also, the relative viability in the test with Motesanib + Olaparib (first compound 0.1 µM) worked out at 1.2; with Motesanib + Olaparib (first compound 0.3162 µM) it was 1.18; with Motesanib + Olaparib (first compound 1 µM) it was 1.16; with Motesanib + Pictilisib (first compound 0.01 µM), 0.774; with Motesanib + Pictilisib (first compound 0.03162 µM), 0.858; with Motesanib + Pictilisib (first compound 0.1 µM), 0.733. The relative viability stood at 0.853 with Motesanib + Pictilisib (first compound 0.3162 µM); 0.706 with Motesanib + Pictilisib (first compound 1 µM); 0.921 in the test with Motesanib + Bortezomib (first compound 0.01 µM); 0.802 with Motesanib + Bortezomib (first compound 0.03162 µM); 0.879 with Motesanib + Bortezomib (first compound 0.1 µM); 0.922 with Motesanib + Bortezomib (first compound 0.3162 µM). Also, the relative viability in the test with Motesanib + Bortezomib (first compound 1 µM) is 0.968.
PC-14: the relative viability in test [1] (first compound 0.04 µM) worked out at 0.281; in test [1] (first compound 0.1265 µM), 0.0303; in test [1] (first compound 0.4 µM), 0.0906; in test [1] (first compound 1.265 µM), 0.0823; in the test with Motesanib + Olaparib (first compound 0.01 µM) it was 0.224; with Motesanib + Olaparib (first compound 0.03162 µM), 0.32. Further, the relative viability came to 0.322 with Motesanib + Olaparib (first compound 0.1 µM); 0.258 with Motesanib + Olaparib (first compound 0.3162 µM); 0.204 with Motesanib + Olaparib (first compound 1 µM); 0.729 with Motesanib + Pictilisib (first compound 0.01 µM); 0.695 in the test with Motesanib + Pictilisib (first compound 0.03162 µM); 0.84 in the test with Motesanib + Pictilisib (first compound 0.1 µM). In addition, the relative viability with Motesanib + Pictilisib (first compound 0.3162 µM) came out at 0.72; with Motesanib + Pictilisib (first compound 1 µM) it was 0.858; with Motesanib + Bortezomib (first compound 0.01 µM), 0.87; with Motesanib + Bortezomib (first compound 0.03162 µM) it was 0.975; in the test with Motesanib + Bortezomib (first compound 0.1 µM), 0.95; with Motesanib + Bortezomib (first compound 0.3162 µM), 0.81. Also, in the test with Motesanib + Bortezomib (first compound 1 µM), the relative viability was found to be 1.06.
As for RERF-LC-KJ, the relative viability in test [1] (first compound 0.04 µM) came to 0.577; in test [1] (first compound 0.1265 µM) it was 0.436; in test [1] (first compound 0.4 µM), 0.42; in test [1] (first compound 1.265 µM) it was 0.385; with Motesanib + Olaparib (first compound 0.01 µM), 0.981; in the test with Motesanib + Olaparib (first compound 0.03162 µM), 0.991. In addition, the relative viability with Motesanib + Olaparib (first compound 0.1 µM) was 0.896; with Motesanib + Olaparib (first compound 0.3162 µM), 1.08; with Motesanib + Olaparib (first compound 1 µM) it was 1.04; with Motesanib + Pictilisib (first compound 0.01 µM), 0.507; with Motesanib + Pictilisib (first compound 0.03162 µM), 0.63; with Motesanib + Pictilisib (first compound 0.1 µM) it was 0.621. In addition, the relative viability with Motesanib + Pictilisib (first compound 0.3162 µM) is 0.613; with Motesanib + Pictilisib (first compound 1 µM) it was 0.61; in the test with Motesanib + Bortezomib (first compound 0.01 µM), 1.01; with Motesanib + Bortezomib (first compound 0.03162 µM), 1.13; in the test with Motesanib + Bortezomib (first compound 0.1 µM), 1.09; with Motesanib + Bortezomib (first compound 0.3162 µM), 1.09. Further, the relative viability with Motesanib + Bortezomib (first compound 1 µM) is 1.03.
Regarding SK-LU-1, the relative viability in test [1] (first compound 0.04 µM) was 0.116; in test [1] (first compound 0.1265 µM) it was 0.112; in test [1] (first compound 0.4 µM), 0.0979; in test [1] (first compound 1.265 µM) it was 0.0968; with Motesanib + Olaparib (first compound 0.01 µM) it was 0.445; with Motesanib + Olaparib (first compound 0.03162 µM), 0.504. For the same cell line, the relative viability with Motesanib + Olaparib (first compound 0.1 µM) was determined as 0.425; with Motesanib + Olaparib (first compound 0.3162 µM) it was 0.505; in the test with Motesanib + Olaparib (first compound 1 µM) it was 0.373; with Motesanib + Pictilisib (first compound 0.01 µM), 0.494; with Motesanib + Pictilisib (first compound 0.03162 µM) it was 0.481; with Motesanib + Pictilisib (first compound 0.1 µM), 0.553. Besides, the relative viability came out at 0.628 in the test with Motesanib + Pictilisib (first compound 0.3162 µM); 0.663 with Motesanib + Pictilisib (first compound 1 µM); 1.11 in the test with Motesanib + Bortezomib (first compound 0.01 µM); 1.48 with Motesanib + Bortezomib (first compound 0.03162 µM); 1.3 in the test with Motesanib + Bortezomib (first compound 0.1 µM); 1.38 in the test with Motesanib + Bortezomib (first compound 0.3162 µM). Also, the relative viability in the test with Motesanib + Bortezomib (first compound 1 µM) was found to be 1.58.
Consider SW 1573, for which the relative viability in test [1] (first compound 0.04 µM) is 0.494; in test [1] (first compound 0.1265 µM) it was 0.275; in test [1] (first compound 0.4 µM), 0.213; in test [1] (first compound 1.265 µM), 0.114; with Motesanib + Olaparib (first compound 0.01 µM), 0.504; with Motesanib + Olaparib (first compound 0.03162 µM), 0.485. Besides, the relative viability with Motesanib + Olaparib (first compound 0.1 µM) was 0.42; with Motesanib + Olaparib (first compound 0.3162 µM), 0.588; in the test with Motesanib + Olaparib (first compound 1 µM), 0.504; in the test with Motesanib + Pictilisib (first compound 0.01 µM) it was 0.479; in the test with Motesanib + Pictilisib (first compound 0.03162 µM), 0.437; with Motesanib + Pictilisib (first compound 0.1 µM) it was 0.617. Also, the relative viability is 0.54 with Motesanib + Pictilisib (first compound 0.3162 µM); 0.563 in the test with Motesanib + Pictilisib (first compound 1 µM); 1.17 with Motesanib + Bortezomib (first compound 0.01 µM); 1.02 with Motesanib + Bortezomib (first compound 0.03162 µM); 1.09 with Motesanib + Bortezomib (first compound 0.1 µM); 1.03 in the test with Motesanib + Bortezomib (first compound 0.3162 µM). For the same cell line, in the test with Motesanib + Bortezomib (first compound 1 µM), the relative viability is 0.928.
As to UMC-11, the relative viability was 0.478 in test [1] (first compound 0.04 µM); 0.471 in test [1] (first compound 0.1265 µM); 0.399 in test [1] (first compound 0.4 µM); 0.278 in test [1] (first compound 1.265 µM); 0.395 with Motesanib + Olaparib (first compound 0.01 µM); 0.356 with Motesanib + Olaparib (first compound 0.03162 µM). In addition, the relative viability with Motesanib + Olaparib (first compound 0.1 µM) amounted to 0.367; with Motesanib + Olaparib (first compound 0.3162 µM), 0.378; in the test with Motesanib + Olaparib (first compound 1 µM) it was 0.34; in the test with Motesanib + Pictilisib (first compound 0.01 µM) it was 0.778; in the test with Motesanib + Pictilisib (first compound 0.03162 µM), 0.923; with Motesanib + Pictilisib (first compound 0.1 µM), 0.5. The relative viability was determined as 0.759 in the test with Motesanib + Pictilisib (first compound 0.3162 µM); 0.863 with Motesanib + Pictilisib (first compound 1 µM); 0.648 with Motesanib + Bortezomib (first compound 0.01 µM); 0.767 in the test with Motesanib + Bortezomib (first compound 0.03162 µM); 0.64 in the test with Motesanib + Bortezomib (first compound 0.1 µM); 0.683 in the test with Motesanib + Bortezomib (first compound 0.3162 µM). In addition, the relative viability in the test with Motesanib + Bortezomib (first compound 1 µM) turned out to be 0.951.
